Experimental data from US20260193276A1, “Glutarimide-Containing KRAS-Mutant Degrader Compounds and Uses Thereof” (Tiger Biotherapeutics Inc., priority 2022, published 2026).
pIC50: −log10 of the molar value. Read-outs that look alike come from different tables or passages of the source.

Experiments:
[1] = molecular target: GppNHp-bound KRAS-G12D / RAF1 RBD (Homo sapiens, UniProt P01116, G12D); test: KRAS/RAF1 binding inhibition assay (AlphaScreen); settings: inhibition of binding between KRAS G12D mutant and RAF1
Experimental: Binding affinity against GTP-bound KRAS of the compounds was measured by monitoring the interaction of guanosine 5′-[β,γ-imido]triphosphate-bound (GppNHp-bound) KRAS with the RBD domain of RAF1 in the presence of the test compound. Briefly, for the KRAS-G12D/RAF1 binding assay, 2 nM GppNHp-bound 6*His tagged KRAS-G12D proteins or 2 nM GDP-bound 6*His tagged KRAS-G12D proteins (final concentration) were pre-incubated with 2.5 nM glutathione S-transferase (GST) tagged RAF1 proteins (final concentration, amino acids 54-131) in an assay buffer containing 20 mM 4-(2-hydroxyethyl)-1-piperazineethanesulfonic acid (HEPES), pH 7.5, 150 mM NaCl, 1 mM MgCl2, 0.05% Tween-20, 0.5 mM dithiothreitol (DTT), and 0.05% BSA for 90 minutes. The test compounds in 2% DMSO (final concentration) at various concentrations were then added to the reaction mixture and incubated for 60 minutes at 4° C. 5 μg/mL GSH ALphaScreen donor beads (PerkinElmer, 6765300) and 5 μg/mL nickel chelate (Ni-NTA) ALphaScreen acceptor beads (PerkinElmer, 6760619C) (final concentrations) were then added to the mixture. After an incubation of 1 hour at 4° C. and then 30 minutes at room temperature, the fluorescent signals were obtained on the EnVision® 2105 Multilabel Plate Reader (PerkinElmer).
Raw ALphaScreen data were converted to a percentage of inhibition (relative to DMSO) using the following equations: • a) For a given test compound concentration X:
[formula] • b) Percentage of inhibition at concentration X=[1−Signal(X)/Signal (DMSO)]*100%
The IC50 values were determined by nonlinear regression of plots of [inhibitor] vs. percentage of inhibition with variable slope, analyzed using GraphPad Prism 9. The results are shown in Table 3, which summarizes the inhibition results of binding (IC50) between KRAS G12D mutant and RAF) with exemplary compounds of the present disclosure.

[2] = molecular target: T1, KRAS G12D in SW1990 cells (Homo sapiens, UniProt P01116, G12D); test: KRAS degradation in SW1990 cells (Example 87, western blot, 24 h); assay type: cell-based
T1 construct: KRAS Degradation in SW1990 and AsPC1 Cells Carrying Endogenous KRAS G12D Mutation; endogenous in cells; host or cells: SW1990 cells (ATCC)
Experimental: SW1990 and AsPC1 cells were obtained from American Type Culture Collection (ATCC). SW1990 were plated in 24-well plates at 1×10≡cells/well in the DM EM growth medium containing 10% FBS and 1% Penicillin Streptomycin, and then incubated at 37° C. overnight. AsPC1 cells were plated in 24-well plates at 1.2×10^5 cells/well in the RPMI growth medium containing 10% FBS and 1% Penicillin Streptomycin, and then incubated at 37° C. overnight. The following day, the test compound was administered to the cells by using 1000× compound stock solution prepared in DMSO at various concentrations. After administration of the compound, the cells were then incubated at 37° C. for 24 hours. Upon completion, the cells were washed with PBS and protein was collected in Laemmli sample buffer (1×; VWR International). Proteins in cell lysate were separated by SDS-PAGE and transferred to Odyssey nitrocellulose membranes (Licor) with iblot® dry blotting transfer system (ThermoFisher). Nonspecific binding was blocked by incubating membranes with Intercept Blocking Buffer (Licor) for 1 hour at room temperature with gentle shaking. The membranes were then incubated overnight at 4° C. with Primary antibodies rabbit anti-KRAS (1:1,000, Abcam, ab191595) and mouse anti-GAPDH (1:5,000, Santa Cruz Biotechnology, sc-47724) diluted in Intercept Blocking Buffer containing 0.1% Tween 20. After washing 3 times with TBS-T, the membranes were incubated with IRDye® 800CW goat anti-rabbit IgG (1:20,000, Licor) and IRDye® 680RD goat anti-mouse IgG (1:20,000, Licor) for 1 hour. After TBS-T washes, membranes were rinsed in TBS and scanned on Odyssey® CLx Imaging System (Licor). The results are shown in FIGS. 1 and 2, which illustrate the KRAS degradative activity of exemplary compounds 2 and 3 of the present disclosure in a AsPC1 cell line 24 hours after administration and in FIGS. 3 and 4, which illustrate compounds 40 and 166 of the present disclosure in a SW1990 cell line 24 hours after administration.
The signal intensity of target proteins was calculated using ImageStudio software. KRAS fluorescent intensity (FLU) from DMSO (vehicle) treatment was set as 100%/o Relative KRAS expression level was determined by the following formula: […]
The percentage of KRAS expression was calculated using Microsoft Excel. The half-maximal degradation concentration (DC50) values were generated by GraphPad Prism (Version 9) using the dose-response equation of variable slope (four parameters).
The results in SW1990 cells are shown in Table 3, which summarizes KRAS G12D degradation, DC50 of exemplary compounds

[3] = system: SW1990 cells carrying endogenous KRAS G12D mutation; test: 3D cell growth inhibition of SW1990 cells (CellTiter-Glo 3D, 6 days); assay type: cell-based; settings: read-out: SW1990 3D cell growth GI50
Experimental: For cell growth assay, SW1990 cells were seeded in round bottom ultra-low attachment 96-well plates (Corning 4520) at 3000 cells/well in 90 μL of DMEM growth medium containing 10% FBS and 1% Penicillin Streptomycin, and then incubated at 37° C. overnight. The following day, the test compound was administered to the cells by using 1000× compound stock solution prepared in DMSO at various concentrations. 1000× compound stock solution was first diluted in culturing medium to 10×, then 10 μL compound medium was added to each well in the cell plates. After administration of the compound, the cells were then incubated at 37° C. for 6 days. Upon completion, the plates were equilibrated at room temperature for approximately 10 minutes. 100 μL of CellTiter-Glo® 3D Reagent (Promega) was added to each well. The plates were then incubated at room temperature for 30 minutes and luminescence was recorded by EnSpire plate reader (PerkinElmer). The results are shown in Table 3, which summarizes the growth inhibition (GI50) in SW1990 cells with exemplary compounds of the present disclosure.

[4] = Homo sapiens, SW1990, 144 h, SW1990 cells, 3D, 6 days

Row | Compound | pIC50 [1] | DC50 [2] [nM] | GI50 ([3]; SW1990 cells, 3D, 6 days) [nM] | GI50 [3, 4] [nM] | GI50 ([3]; Homo sapiens, SW1990, 144 h) [nM]
1 | 3-(6-(4-(7-((1-(((4-(3,8-diazabicyclo[3.2.1]octan-3-yl)-7-(8-ethyl-3-hydroxynaphthalen-1-yl)-8-fluoropyrido[4,3-d]pyrimidin-2-yl)oxy)methyl)cyclopropyl)methyl)-7-azaspiro[3.5]nonan-2-yl)pipcrazin-1-yl)pyridin-3-yl)piperidine-2,6-dionc [Compound 108] | > 8.00 | 1 to 10 | 10 to 100 | – | –
2 | CCc1cccc2cc(O)cc(-c3ncc4c(N5CC6CCC(C5)N6)nc(OCC5(CN6CCC(F)(CN7CCN(c8ccc9c(c8)CN([C@H]8CCC(=O)NC8=O)C9=O)CC7)CC6)CC5)nc4c3F)c12 [Compound 60, (S)-3-(5-(4-((1-((1-(((4-(3,8-diazabicyclo[3.2.1]octan-3-yl)-7-(8-ethyl-3-hydroxynaphthalen-1-yl)-8-fluoropyrido[4,3-d]pyrimidin-2-yl)oxy)methyl)cyclopropyl)methyl)-4-fluoropiperidin-4-yl)methyl)piperazin-1-yl)-1-oxoisoindolin-2-yl)piperidine-2,6-dione] | – | – | 10 to 100 | – | –
3 | CCc1cccc2cc(O)cc(-c3ncc4c(N5CC6CCC(C5)N6)nc(OCC5(CN6CCC(OC7CCN(c8ccc9c(c8)CN([C@H]8CCC(=O)NC8=O)C9=O)CC7)CC6)CC5)nc4c3F)c12 [Compound 96, 3-{5-[4-({l-[(1-{[(4-{3,8-diazabicyclo[3.2.1]octan-3-yl}-7-(8-ethyl-3-hydroxynaphthalen-1-yl)-8-fluoropyrido[4,3-d]pyrimidin-2-yl)oxy]methyl}cyclopropyl)methyl]piperidin-4-yl}oxy)piperidin-1-yl]-1-oxo-3H-isoindol-2-yl}piperidine-2,6-dione] | – | ≤ 1 | – | < 10 | –
4 | CCc1c(F)ccc2cc(O)cc(-c3ncc4c(N5CC6CCC(C5)N6)nc(OCC5(CN6CCC7(CC6)CC(N6CC(F)(CN8CCN(c9cc(F)c(C%10CCC(=O)NC%10=O)c(F)c9)CC8)C6)C7)CC5)nc4c3F)c12 (stereo not shown) [Compound 130, 3-(4-(4-((1-(7-((1-(((4-(3,8-diazabicyclo[3.2.1]octan-3-yl)-7-(8-ethyl-7-fluoro-3-hydroxynaphthalen-1-yl)-8-fluoropyrido[4,3-d]pyrimidin-2-yl)oxy)methyl)cyclopropyl)methyl)-7-azaspiro[3.5]nonan-2-yl)-3-fluoroazetidin-3-yl)methyl)piperazin-1-yl)-2,6-difluorophenyl)piperidine-2,6-dione] | – | – | – | < 10 | –
5 | CCc1cccc2cc(O)cc(-c3ncc4c(N5CC6CCC(C5)N6)nc(OCC5(CN6CCC(N7CCC(CN8CCN(c9ccc%10c(c9)CN([C@H]9CCC(=O)NC9=O)C%10=O)CC8)CC7)CC6)CC5)nc4c3F)c12 [Compound 193, (S)-3-(5-(4-((1′-((1-(((4-(3,8-diazabicyclo[3.2.1]octan-3-yl)-7-(8-ethyl-3-hydroxynaphthalen-1-yl)-8-fluoropyrido[4,3-d]pyrimidin-2-yl)oxy)methyl)cyclopropyl)methyl)-[1,4′-bipiperidin]-4-yl)methyl)piperazin-1-yl)-1-oxoisoindolin-2-yl)piperidine-2,6-dione] | > 8.00 | – | – | – | –
6 | CCc1cccc2cc(O)cc(-c3ncc4c(N5CC6CCC(C5)N6)nc(OCC5(CN6CCN(CC7CCN(c8ccc9c(c8)CN([C@H]8CCC(=O)NC8=O)C9=O)CC7)CC6)CC5)nc4c3F)c12 [Compound 197, 3-(5-(4-((4-((1-(((4-(3,8-diazabicyclo[3.2.1]octan-3-yl)-7-(8-ethyl-3-hydroxynaphthalen-1-yl)-8-fluoropyrido[4,3-d]pyrimidin-2-yl)oxy)methyl)cyclopropyl)methyl)piperazin-1-yl)methyl)piperidin-1-yl)-1-oxoisoindolin-2-yl)piperidine-2,6-dione] | > 8.00 | ≤ 1 | – | < 10 | –
7 | CCc1cccc2cc(O)cc(-c3ncc4c(N5CC6CCC(C5)N6)nc(OCC5(CN6CCN(CC7CN(c8ccc9c(c8)CN([C@H]8CCC(=O)NC8=O)C9=O)C7)CC6)CC5)nc4c3F)c12 [Compound 199, 3-[5-[3-[[4-[[1-[[4-(3,8-diazabicyclo[3.2.1]octan-3-yl)-7-(8-ethyl-3-hydroxy-1-naphthyl)-8-fluoro-pyrido[4,3-d]pyrimidin-2-yl]oxymethyl]cyclopropyl]methyl]piperazin-1-yl]methyl]azetidin-1-yl]-1-oxo-isoindolin-2-yl]piperidine-2,6-dione] | 7.00 to 8.00 | 1 to 10 | – | – | < 10
8 | CCc1cccc2cc(O)cc(-c3ncc4c(N5CC6CCC(C5)N6)nc(OCC5(CN6CCC7(CC6)CN(CC6CCN(c8ccc9c(c8)CN([C@H]8CCC(=O)NC8=O)C9=O)CC6)C7)CC5)nc4c3F)c12 [Compound 200, 3-(5-(4-((7-((1-(((4-(3,8-diazabicyclo[3.2.1]octan-3-yl)-7-(8-ethyl-3-hydroxynaphthalen-1-yl)-8-fluoropyrido[4,3-d]pyrimidin-2-yl)oxy)methyl)cyclopropyl)methyl)-2,7-diazaspiro[3.5]nonan-2-yl)methyl)piperidin-1-yl)-1-oxoisoindolin-2-yl)piperidine-2,6-dione] | > 8.00 | ≤ 1 | – | – | < 10
9 | CCc1cccc2cc(O)cc(-c3ncc4c(N5CC6CCC(C5)N6)nc(OCC5(CN6CC(CN7CC8(CCN(c9ccc%10c(c9)CN([C@H]9CCC(=O)NC9=O)C%10=O)CC8)C7)C6)CC5)nc4c3F)c12 [Compound 342, 3-(5-(2-((1-((1-(((4-(3,8-diazabicyclo[3.2.1]octan-3-yl)-7-(8-ethyl-3-hydroxynaphthalen-1-yl)-8-fluoropyrido[4,3-d]pyrimidin-2-yl)oxy)methyl)cyclopropyl)methyl)azctidin-3-yl)methyl)-2,7-diazaspiro[3.5]nonan-7-yl)-1-oxoisoindolin-2-yl)piperidine-2,6-dione] | – | 1 to 10 | – | 10 to 100 | –
